Like-named read-outs stand apart in the source and are kept apart here.
How the values were obtained:
Test in all cases: IC50 assay, NSCLC cell lines (Cell Titer Glo, total ATP)
Format in all cases: cell-based
Calu-6 = conditions: Homo sapiens
Protocol: (§1) Cells were plated at ˜15% confluence in a media comprising 5% concentration of fetal bovine serum supplemented with RPMI, which included 2 mM L-Glutamine in a 96 well dish. […] Following three days of incubation in a 5% CO2 incubator, the total ATP in each well was quantified using Cell Titer Glo (Promega). […] The solid lines represent the medians.

H125 = conditions: Homo sapiens
Protocol: as §1

H1355 = conditions: Homo sapiens
Protocol: as §1

H1437 = conditions: Homo sapiens
Protocol: as §1

H1568 = conditions: Homo sapiens
Protocol: as §1

H1573 = conditions: Homo sapiens, NCI-H1573, read-out: Indisulam IC50 (log 10) (converted), U2AF1 WT
Protocol: as §1

H1703 = conditions: Homo sapiens
Protocol: as §1

H1770 = conditions: Homo sapiens
Protocol: as §1

H1975 = conditions: Homo sapiens
Protocol: as §1

H1993 = conditions: Homo sapiens
Protocol: as §1

H2030 = conditions: Homo sapiens
Protocol: as §1

H2106 = conditions: Homo sapiens
Protocol: as §1

H2122 = conditions: Homo sapiens
Protocol: as §1

H2170 = conditions: Homo sapiens
Protocol: as §1

H2228 = conditions: Homo sapiens
Protocol: as §1

H2342 = conditions: Homo sapiens
Protocol: as §1

H2347 = conditions: Homo sapiens
Protocol: as §1

H3122 = conditions: Homo sapiens
Protocol: as §1

H441 = conditions: Homo sapiens
Protocol: as §1

H460 = conditions: Homo sapiens, NCI-H460, read-out: Indisulam IC50 (log 10) (converted), U2AF1 WT
Protocol: as §1

H522 = conditions: Homo sapiens
Protocol: as §1

H820 = conditions: Homo sapiens
Protocol: as §1

HCC366 = conditions: Homo sapiens
Protocol: as §1

HCC44 = conditions: Homo sapiens
Protocol: as §1

HCC95 = conditions: Homo sapiens
Protocol: as §1

LC-2/AD = conditions: Homo sapiens
Protocol: as §1

WI38 = conditions: Homo sapiens
Protocol: as §1

[1] = read-out: Indisulam IC50 (log 10) (converted), U2AF1 WT
[2] = read-out: Indisulam IC50, U2AF1 WT

`NS(=O)(=O)c1ccc(S(=O)(=O)Nc2cccc3c(Cl)c[nH]c23)cc1` [Indisulam, indisulam] was tested, and the IC50 (Calu-6; [1]) was 1.51 µM, the IC50 (Calu-6; [2]) was 1.51 µM and the IC50 (H125; NCI-H125, read-out: Indisulam IC50 (log 10) (converted), U2AF1 WT) was 10.8 µM. The IC50 (H125; NCI-H125, read-out: Indisulam IC50, U2AF1 WT) was 10.8 µM, the IC50 (H1355; NCI-H1355, read-out: Indisulam IC50 (log 10) (converted), U2AF1 WT) was 2.5 µM and the IC50 (H1355; NCI-H1355, read-out: Indisulam IC50, U2AF1 WT) was 2.5 µM. The IC50 (H1437; NCI-H1437, read-out: Indisulam IC50 (log 10) (converted), U2AF1 WT) was 14 µM, the IC50 (H1437; NCI-H1437, read-out: Indisulam IC50, U2AF1 WT) was 14 µM and the IC50 (H1568; NCI-H1568, read-out: Indisulam IC50 (log 10) (converted), U2AF1 WT) was 265 µM. The IC50 (H1568; NCI-H1568, read-out: Indisulam IC50, U2AF1 WT) was 265 µM, the IC50 (H1573) was ≥ 500 µM and the IC50 (H1703; NCI-H1703, read-out: Indisulam IC50 (log 10) (converted), U2AF1 WT) was 3.33 µM. For the same molecule, the IC50 (H1703; NCI-H1703, read-out: Indisulam IC50, U2AF1 WT) was 3.33 µM, the IC50 (H1770; NCI-H1770, read-out: Indisulam IC50 (log 10) (converted), U2AF1 WT) was 16.2 µM and the IC50 (H1770; NCI-H1770, read-out: Indisulam IC50, U2AF1 WT) was 16.2 µM. It also gave an IC50 (H1975; NCI-H1975, read-out: Indisulam IC50 (log 10) (converted), U2AF1 WT) of 1.51 µM, an IC50 (H1975; NCI-H1975, read-out: Indisulam IC50, U2AF1 WT) of 1.51 µM and an IC50 (H1993; NCI-H1993, read-out: Indisulam IC50 (log 10) (converted), U2AF1 WT) of 1.42 µM. It also gave an IC50 (H1993; NCI-H1993, read-out: Indisulam IC50, U2AF1 WT) of 1.42 µM, an IC50 (H2030; NCI-H2030, read-out: Indisulam IC50 (log 10) (converted), U2AF1 WT) of 79.1 µM and an IC50 (H2030; NCI-H2030, read-out: Indisulam IC50, U2AF1 WT) of 79.1 µM. The IC50 (H2106; [1]) was 0.616 µM, the IC50 (H2106; [2]) was 0.616 µM and the IC50 (H2122; NCI-H2122, read-out: Indisulam IC50 (log 10) (converted), U2AF1 WT) was 18.8 µM. It also gave an IC50 (H2122; NCI-H2122, read-out: Indisulam IC50, U2AF1 WT) of 18.8 µM, an IC50 (H2170; NCI-H2170, read-out: Indisulam IC50 (log 10) (converted), U2AF1 WT) of 29.6 µM and an IC50 (H2170; NCI-H2170, read-out: Indisulam IC50, U2AF1 WT) of 29.6 µM. It also gave an IC50 (H2228; NCI-H2228, read-out: Indisulam IC50 (log 10) (converted), U2AF1 WT) of 1.26 µM, an IC50 (H2228; NCI-H2228, read-out: Indisulam IC50, U2AF1 WT) of 1.26 µM and an IC50 (H2342; NCI-H2342, read-out: Indisulam IC50 (log 10) (converted), U2AF1 WT) of 58.6 µM. For the same molecule, the IC50 (H2342; NCI-H2342, read-out: Indisulam IC50, U2AF1 WT) was 58.6 µM, the IC50 (H2347; NCI-H2347, read-out: Indisulam IC50 (log 10) (converted), U2AF1 WT) was 13.5 µM and the IC50 (H2347; NCI-H2347, read-out: Indisulam IC50, U2AF1 WT) was 13.5 µM. For the same molecule, the IC50 (H3122; NCI-H3122, read-out: Indisulam IC50 (log 10) (converted), U2AF1 WT) was 70.1 µM, the IC50 (H3122; NCI-H3122, read-out: Indisulam IC50, U2AF1 WT) was 70.1 µM and the IC50 (H441; NCI-H441, read-out: Indisulam IC50 (log 10) (converted), U2AF1 S34F) was 59.5 µM. The IC50 (H441; NCI-H441, read-out: Indisulam IC50, U2AF1 S34F) was 59.5 µM, the IC50 (H460) was ≥ 500 µM and the IC50 (H522; NCI-H522, read-out: Indisulam IC50 (log 10) (converted), U2AF1 WT) was 1.22 µM. For the same molecule, the IC50 (H522; NCI-H522, read-out: Indisulam IC50, U2AF1 WT) was 1.22 µM, the IC50 (H820; NCI-H820, read-out: Indisulam IC50 (log 10) (converted), U2AF1 WT) was 5.17 µM and the IC50 (H820; NCI-H820, read-out: Indisulam IC50, U2AF1 WT) was 5.17 µM. It also gave an IC50 (HCC366; [1]) of 6.91 µM, an IC50 (HCC366; [2]) of 6.91 µM and an IC50 (HCC44; [1]) of 23 µM. The IC50 (HCC44; [2]) was 23 µM, the IC50 (HCC95; [1]) was 9.5 µM and the IC50 (HCC95; [2]) was 9.5 µM. The IC50 (LC-2/AD; read-out: Indisulam IC50 (log 10) (converted), U2AF1 S34F) was 0.376 µM, the IC50 (LC-2/AD; read-out: Indisulam IC50, U2AF1 S34F) was 0.376 µM and the IC50 (WI38; WI-38, read-out: Indisulam IC50 (log 10) (converted), U2AF1 WT) was 10 µM. It also gave an IC50 (WI38; WI-38, read-out: Indisulam IC50, U2AF1 WT) of 10 µM.
